# Data from article PMC6054692, “Library screening of cell-penetrating peptide for BY-2 cells, leaves of Arabidopsis, tobacco, tomato, poplar, and rice callus” (Scientific Reports, 2018).
# System: BY-2 cells
# Assay: Cell penetration efficiency into BY-2 suspension culture cells (CLSM of TAMRA-labeled CPP)
# Conditions: negative control without CPP, 15 min, 1 h, 3 h and 6 h at 26 °C, BY-2 cells 3 days after subculture
# Description: To evaluate the cell penetration efficiency of the 55 CPPs into BY-2 suspension culture cells, we first optimized the CPP concentration and cell density using BP100 as a model CPP. The cell penetration efficiency of CPP into BY-2 cells was determined based on the ratio of numbers of cell with and without TAMRA signals of CPP by confocal laser scanning microscopy (CLSM) (Fig. 2). […] Thus, we used the BY-2 cells at 3 days after subculture as well as the incubation time of 3 hours for all the experiments in this study.
# Suspension-cultured tobacco (Nicotiana tabacum) cv. BY-2 cells were provided by the RIKEN Bio Resource Center. […]
# The penetration efficiency of CPPs into BY-2 suspension cells and young true leaves of N. benthamiana, A. thaliana, Moneymaker tomato, O. sativa Nipponbare, and poplar, and O. sativa callus was determined using confocal laser scanning microscopy (CLSM, ZeissLSM 700, Carl Zeiss, Oberkochen, Germany). The intracellular localization of TAMRA-labeled CPP was observed using excitation at 555 nm for the detection of TAMRA fluorescence. The total number of cells was counted using differential interfering contrast images. The efficiency was determined as follows: Cellpenetrationefficiency(%)=(thenumberofstainedcells)/(thenumberoftotalcells)×100 Various BY-2 cell concentrations (230 to >1000 cells/µL) of BY-2 cells were tested to determine the optimal cell concentration. […]
compound,measurement,value
"CN(C)c1ccc2c(-c3ccc(C(=O)O)cc3C(=O)[O-])c3ccc(N(C)C)cc3[o+]c2c1 [TAMRA, 5-carboxytetramethylrhodamine]",Penetration of TAMRA alone into BY-2 cells,could not penetrate
